Measured values as given in patent publication US10294218B2 (VIROSTATICS SRL, priority 2012, dated 2019).
Read-outs that look alike come from different tables or passages of the source.

Legend:
Type in all cases: cell-based
Primary T cells [1] = assay: Cytotoxicity, percentage of viable cells by flow cytometry; details: viability
Procedure: Primary T cells are cultured and treated with different concentrations of the test compound. Viability is analysed by measuring through flow cytometry based techniques the percentage of viable cells, compared to untreated control=100%).
(§1) In Tables 2, 3 and 4, ND means Not Determined.

Primary T cells [2] = assay: Antiproliferative activity (AP), mitotic index by flow cytometry; details: read-out: AP50 (Inhibitory concentration 50% for antiproliferative capacity)
Procedure: Primary T cells are cultured and exposed to different concentrations of the test compounds. Cell proliferation is analysed by measuring mitotic index (ie the number of cell divisions a population of cells undergoes) through flow cytometry based techniques. Mitotic index is expressed as percentage of untreated control. Inhibition of cell proliferation (AP) is then calculated (AP=100 minus % mitotic index compared to control, AP of control=0%). Inhibitory concentration 50% for antiproliferative capacity (AP50) is calculated.
as §1

[3] = test system: laboratory strain of HIV-1; assay: Antiviral activity against HIV (AV), p24 in infected activated primary T cells; details: for IC50: read-out: AV50 (Inhibitory concentration 50% for antiviral activity); for antiviral and antiproliferative activity and cytotoxicity profile (in words): summary of AV, AP and cytotoxicity assays; for anti-HIV and cytotoxicity profile (in words): summary of AV and cytotoxicity assays
In short: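 Activated primary T cells infected with a laboratory HIV-1 strain were cultured with a range of compound concentrations. Replication was measured as p24, expressed as a percentage of untreated control, with AV = 100 − % p24. AV50 is the concentration giving 50% antiviral activity.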

[4] = Human immunodeficiency virus 1, T-cell
[5] = T-cell, primary T cells, mitotic index

Compound | TD50 (Toxic dose 50%) (Primary T cells [1]) | IC50 (Primary T cells [2]; T-cell) | IC50 [3, 4] | antiviral and antiproliferative activity and cytotoxicity profile (in words) [3] | other results
COc1ccc(Nc2cc(-c3ccccc3OC)ncn2)cc1CN1C(=O)c2ccccc2C1=O [Example 3, 2-(2-Methoxy-5-(6-(2-methoxyphenyl)pyrimidin-4-ylamino)benzyl)isoindoline-1,3-dione] | >5 µM | > 1000 nM |  |  | 
COc1ccccc1-c1cc(Nc2ccc(N(C)C)cc2)ncn1 [Example 5, N^1-(6-(2-methoxyphenyl)pyrimidin-4-yl)-N^4,N^4-dimethylbenzene-1,4-diamine] | >10 µM | 150 nM | 300 nM | good antiviral and antiproliferative activity and a good cytotoxicity profile | 
COc1ccc(Nc2cc(-c3ccccc3OC)ncn2)cc1OCCN1CCOCC1 [Example 8, N-(4-Methoxy-3-(2-morpholinoethoxy)phenyl)-6-(2-methoxyphenyl)pyrimidin-4-amine] | >1.5 µM | > 1500 nM | 400 nM |  | 
COc1ccccc1-c1cc(Nc2ccc(Cl)c(CN3C(=O)c4ccccc4C3=O)c2)ncn1 [Example 20, 2-(2-Chloro-5-(6-(2-methoxyphenyl)pyrimidin-4-ylamino)benzyl)isoindoline-1,3-dione] | >0.5 µM | > 500 nM | > 1500 nM |  | 
COc1ccc(Nc2cc(-c3ccccc3OC)ncn2)cc1NC(=O)OCC(Cl)(Cl)Cl [Example 27, 2,2,2-Trichloroethyl 2-methoxy-5-(6-(2-methoxyphenyl)pyrimidin-4-ylamino)phenylcarbamate] | >0.5 µM | > 500 nM | > 500 nM |  | 
COc1ccc(Nc2cc(-c3ccccc3OC)ncn2)cc1OCc1ccccc1 [Example 36, N-(3-(Benzyloxy)-4-methoxyphenyl)-6-(2-methoxyphenyl)pyrimidin-4-amine] | >5 µM | > 5000 nM |  |  | 
CNCc1cc(Nc2cc(-c3ccccc3OC)ncn2)ccc1OC [Example 37, N-(4-Methoxy-3-((methylamino)methyl)phenyl)-6-(2-methoxyphenyl)pyrimidin-4-amine] | 2 µM |  |  |  | IC50 ([3]; HIV-1 infected activated primary T cells, p24): > 1500 nM; IC50 (Primary T cells [2]; primary T cells, mitotic index): 2000 nM
COc1ccc(Nc2cc(-c3ccccc3OC)ncn2)cc1C(=O)N(C)N [Example 46, 2-Methoxy-5-[6-(2-methoxy-phenyl)-pyrimidin-4-ylamino]-benzoic acid N-methyl-hydrazide] | >10 µM |  | 5000 nM |  | 
COc1ccc(Nc2cc(-c3cc(F)ccc3OC)ncn2)cc1N [Example 75, N^1-[6-(5-Fluoro-2-methoxy-phenyl)-pyrimidin-4-yl]-4-methoxy-benzene-1,3-diamine] |  |  | 10 nM | good antiviral and antiproliferative activity and a good cytotoxicity profile | IC50 (Primary T cells [2]; [5]): < 80 nM
COc1ccc(Nc2cc(-c3ccccc3OC(C)C)ncn2)cc1N [Example 79, N^1-[6-(2-Isopropoxy-phenyl)-pyrimidin-4-yl]-4-methoxy-benzene-1,3-diamine] |  |  | 8 nM | good antiviral and antiproliferative activity and a good cytotoxicity profile | IC50 (Primary T cells [2]; [5]): < 80 nM
CCOc1ccc(Nc2cc(-c3ccccc3OC)ncn2)cc1C(N)=O [Example 111, 2-Ethoxy-5-[6-(2-methoxy-phenyl)-pyrimidin-4-ylamino]-benzamide] |  |  | 7 nM | good antiviral and antiproliferative activity and a good cytotoxicity profile | IC50 (Primary T cells [2]; [5]): 16 nM
CCOc1ccc(Nc2cc(-c3ccc(F)cc3OC)ncn2)cc1C(N)=O [Example 112, 2-Ethoxy-5-[6-(4-fluoro-2-methoxy-phenyl)-pyrimidin-4-ylamino]-benzamide] |  |  | 6 nM | good antiviral and antiproliferative activity and a good cytotoxicity profile | IC50 (Primary T cells [2]; [5]): < 3 nM
COc1ccc(Nc2cc(-c3ccc(F)cc3OC)ncn2)cc1NC(C)=O [Example 117, N-{5-[6-(4-Fluoro-2-methoxy-phenyl)-pyrimidin-4-ylamino]-2-methoxy-phenyl}-acetamide] | >2 µM |  | 200 nM |  | 
COC(=O)Nc1cc(Nc2cc(-c3ccc(F)cc3OC)ncn2)ccc1OC [Example 118, {5-[6-(4-Fluoro-2-methoxy-phenyl)-pyrimidin-4-ylamino]-2-methoxy-phenyl}-carbamic Acid Methyl Ester] | >2 µM |  | 1500 nM |  | 
COc1ccc(Nc2cc(-c3ccc(F)cc3OC)ncn2)cc1OC(C)=O [Example 126, Acetic Acid 5-[6-(4-fluoro-2-methoxy-phenyl)-pyrimidin-4-ylamino]-2-methoxy-phenyl Ester] | >2 µM |  | 100 nM |  | 
COc1ccc(Nc2cc(-c3cc(F)ccc3OC)ncn2)cc1C(N)=O [Example 127, 5-[6-(5-Fluoro-2-methoxy-phenyl)-pyrimidin-4-ylamino]-2-methoxy-benzamide] |  | < 80 nM | 3 nM | good antiviral and antiproliferative activity and a good cytotoxicity profile | 
COc1ccc(Nc2cc(-c3ccc(F)cc3OC)ncn2)cc1C(N)=O [Example 128, 5-[6-(4-Fluoro-2-methoxy-phenyl)-pyrimidin-4-ylamino]-2-methoxy-benzamide] |  | 30 nM | < 3 nM | good antiviral and antiproliferative activity and a good cytotoxicity profile | 
CCOc1ccccc1-c1cc(Nc2ccc(OC)c(C(N)=O)c2)ncn1 [Example 129, 5-[6-(2-Ethoxy-phenyl)-pyrimidin-4-ylamino]-2-methoxy-benzamide] |  | < 80 nM | 10 nM | good antiviral and antiproliferative activity and a good cytotoxicity profile | 
CCOc1ccc(F)cc1-c1cc(Nc2cc(F)c(OC)c(C(N)=O)c2)ncn1 [Example 142, 5-[6-(2-Ethoxy-5-fluoro-phenyl)-pyrimidin-4-ylamino]-3-fluoro-2-methoxy-benzamide] |  | 40 nM | 40 nM | good antiviral and antiproliferative activity and a good cytotoxicity profile | 
COc1cc(F)c(Nc2cc(-c3ccccc3OC)ncn2)cc1C(N)=O [Example 143, 4-Fluoro-2-methoxy-5-[6-(2-methoxy-phenyl)-pyrimidin-4-ylamino]-benzamide] |  | > 80 nM | 16 nM | good antiviral and antiproliferative activity and a good cytotoxicity profile | 
COc1cc(F)c(Nc2cc(-c3cc(F)ccc3OC)ncn2)cc1C(N)=O [Example 144, 4-Fluoro-5-[6-(5-fluoro-2-methoxy-phenyl)-pyrimidin-4-ylamino]-2-methoxy-benzamide] |  | 90 nM | < 3 nM | good antiviral and antiproliferative activity and a good cytotoxicity profile | 
CCOc1ccccc1-c1cc(Nc2cc(C(N)=O)c(OC)cc2F)ncn1 [Example 145, 5-[6-(2-Ethoxy-phenyl)-pyrimidin-4-ylamino]-4-fluoro-2-methoxy-benzamide] |  | 50 nM | 30 nM | good antiviral and antiproliferative activity and a good cytotoxicity profile | 
COc1cc(F)c(Nc2cc(-c3ccc(F)cc3OC)ncn2)cc1C(N)=O [Example 146, 4-Fluoro-5-[6-(4-fluoro-2-methoxy-phenyl)-pyrimidin-4-ylamino]-2-methoxy-benzamide] |  | 40 nM | < 3 nM | good antiviral and antiproliferative activity and a good cytotoxicity profile | 
CCOc1cc(F)ccc1-c1cc(Nc2cc(C(N)=O)c(OC)cc2F)ncn1 [Example 147, 5-[6-(2-Ethoxy-4-fluoro-phenyl)-pyrimidin-4-ylamino]-4-fluoro-2-methoxy-benzamide] |  | 40 nM | 5 nM | good antiviral and antiproliferative activity and a good cytotoxicity profile | 
CN1CC[C@H](c2c(O)cc(O)c3c(=O)cc(-c4ccccc4Cl)oc23)[C@H](O)C1 [Flavopiridol, reference compound] |  |  |  |  | IC50 ([3]; Human immunodeficiency virus 1, T-cell, HIV-1 infected activated primary T cells, p24): 100 nM; anti-HIV and cytotoxicity profile (in words) [3]: poor anti-HIV and cytotoxicity profile; IC50 (Primary T cells [2]; [5]): 30 nM
CC[C@H](CO)Nc1nc(NCc2ccccc2)c2ncn(C(C)C)c2n1 [Roscovitine, reference compound] | 8 µM |  |  |  | anti-HIV and cytotoxicity profile (in words) [3]: poor anti-HIV and cytotoxicity profile
